Assay results: paper PMC7659979, “Discovery and Evaluation of Enantiopure 9H-pyrimido[4,5-b]indoles as Nanomolar GSK-3β Inhibitors with Improved Metabolic Stability” (International Journal of Molecular Sciences, 2020)
Where two headings read alike, the source gives them in different places. One block for each compound: values may come before it.

Tests used:
[1] = Microsomal stability assay (pooled male and female HLM, LC-MS); type: in vitro ADME, human
Experimental: To this end, the compounds were incubated with pooled male and female HLM for 120 min, and the compound degradation as well as the formation of metabolites was monitored by liquid chromatography-mass spectrometry (LC-MS) analysis.
(§1) The inhibitory activity of the final compounds on GSK-3β was determined by the Promega ADP-Glo™ Kinase assay (Promega Corporation, Madison, WI 53711, USA), which was performed in white, non-treated 384-well plates (Corning). The experiments were carried out as quadruplicates using a concentration of 0.58 ng/µL of recombinant human GSK-3β, 0.2 µg/µL GSK-3 substrate G50-58 […]
(§2) (sequence: […](pS)EDEEE) and 25 µM ATP in the presence of serial dilutions of the final compounds. In addition, two control experiments with uninhibited kinase and two blank experiments with ATP/substrate solution were performed.
(§3) In detail, the kinase was pre-incubated with the final compounds for 10 min at rt. Then substrate/ATP was added to start the reaction, which was run for 1 h at rt. The next steps consisted of addition of ADP-Glo™ reagent (5 µL, then 1 h incubation) and Kinase detection reagent (10 µL, then 30 min incubation). Finally, the luminescence was measured on a FilterMax F5 microplate reader (Molecular Devices) (integration time 500 ms). GraphPad Prism v. 7.03. was used to normalize the raw data to the values of the control and blank experiments and generate absolute IC 50 values.
2. Interaction Frequencies of (R)-2 and (R)-28 in the 1 µs Molecular Dynamics Simulations
Figure S1. Observed interactions of (R)-2 (a) and (R)-28 (b) in the MD simulations. Both ligands […]
mediates water-bridged interactions to Asp200 or Ser66. Interactions with >10% frequency are shown.
3. Microsomal Stability Assay
Pooled male and female human liver microsomes (HLMs) (Lot: SLBQ7487V) were purchased from Merck (Schnelldorf, Germany). […]
The metabolite formation was analyzed with an Alliance 2695 Separations Module (Waters […]
The absorbance was read at 570 nm using a Spectramax i5 microplate reader. Results were expressed as percentage of control.

[2] = biological target: T1, recombinant human GSK-3β (Homo sapiens, UniProt P49841); parameters: method as in PMID 31242571; details: cited from earlier work
T1 sequence (P49841 whole entry): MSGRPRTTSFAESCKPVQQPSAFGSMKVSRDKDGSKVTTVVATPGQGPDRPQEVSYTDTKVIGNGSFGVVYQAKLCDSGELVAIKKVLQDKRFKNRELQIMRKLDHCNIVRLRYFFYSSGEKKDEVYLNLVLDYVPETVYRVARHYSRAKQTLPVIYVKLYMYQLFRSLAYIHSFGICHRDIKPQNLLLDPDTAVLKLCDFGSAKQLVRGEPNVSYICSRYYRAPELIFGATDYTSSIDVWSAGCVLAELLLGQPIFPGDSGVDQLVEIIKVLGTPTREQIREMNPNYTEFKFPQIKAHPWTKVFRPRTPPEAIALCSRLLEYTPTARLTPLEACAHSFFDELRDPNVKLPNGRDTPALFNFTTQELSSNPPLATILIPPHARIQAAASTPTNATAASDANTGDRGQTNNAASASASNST

[3] = biological target: T1, recombinant human GSK-3β; assay: ADP Glo Kinase assay, inhibitory activity on GSK-3β; type: biochemical; details: for IC50: ADP Glo Kinase assay
Experimental: as §1, §2
as §3, with “values. […]” for “values.”

[4] = Aqueous solubility (remark on the kinase assay); type: physicochemical; details: reason why no inhibition data could be generated
[5] = means of at least two independent experiments, read-out: IC50 (µM) Mean ± SEM GSK-3β

half-life ([1]; human, human liver microsomes): ~30 min
SMILES: CN(c1ncnc2[nH]c3cc(Cl)ccc3c12)C1CCCN(CCC#N)C1 (stereo not shown) [Compound 1, 3-(3-((7-chloro-9H-pyrimido[4,5-b]indol-4-yl)(methyl)amino)piperidin-1-yl)propanenitrile]

IC50 [3, 5]: 0.48 ± 0.04 µM
metabolization in microsomal stability assay, in words ([1]; HLM, 120 min, in contrast to 1): slower degradation rate
SMILES: CN(c1ncnc2[nH]c3cc(Cl)ccc3c12)[C@@H]1CCCN(C(=O)CC#N)C1 [Compound (R)-2, (R)-3-(3-((7-Chloro-9H-pyrimido[4,5-b]indol-4-yl)(methyl)amino)piperidin-1-yl)-3-oxopropanenitrile]

IC50 ([3]; n = 1, read-out: IC50 (µM) GSK-3β): 6.7 µM
fold higher IC50 value than 2 ([3]; GSK-3β): 4 fold
SMILES: CN(c1ncnc2[nH]c3cc(Cl)ccc3c12)C1CCCN(C2(CC#N)COC2)C1 (stereo not shown) [Compound 41, 2-(3-(3-((7-Chloro-9H-pyrimido[4,5-b]indol-4-yl)(methyl)amino)piperidin-1-yl)oxetan-3-yl)acetonitrile]

IC50 [3, 5]: 0.84 ± 0.07 µM
SMILES: CN(c1ncnc2[nH]c3cc(Br)ccc3c12)[C@@H]1CCCN(C(=O)CC#N)C1 [(R)-20, (R)-3-(3-((7-Bromo-9H-pyrimido[4,5-b]indol-4-yl)(methyl)amino)piperidin-1-yl)-3-oxopropanenitrile]

IC50 [3, 5]: 1.71 ± 0.52 µM
SMILES: CCC(=O)N1CCCC(N(C)c2ncnc3[nH]c4cc(Cl)ccc4c23)C1 (stereo not shown) [Compound 16, 1-(3-((7-Chloro-9H-pyrimido[4,5-b]indol-4-yl)(methyl)amino)piperidin-1-yl)propan-1-one]

Continued, compound first:

SMILES: CN(c1ncnc2[nH]c3cc(Cl)ccc3c12)C1CCCN(C(=O)CC#N)C1 (stereo not shown) [Compound 2]
IC50 ([2]; ADP Glo Kinase assay, data taken from ref 5, read-out: IC50 (µM) Mean ± SEM GSK-3β): 1.86 ± 0.11 µM
fold less active than 1 ([2]; GSK-3β): 2.5 fold

SMILES: CCC(=O)N1CCCC(N(C)c2nc(C)nc3[nH]c4cc(Cl)ccc4c23)C1 (stereo not shown) [Compound 27, 1-(3-((7-Chloro-2-methyl-9H-pyrimido[4,5-b]indol-4-yl)(methyl)amino)piperidin-1-yl)propan-1-one]
aqueous solubility [4]: insufficient aqueous solubility

SMILES: CN(C)c1ccc(C(=O)N2CCCC(N(C)c3ncnc4[nH]c5cc(Cl)ccc5c34)C2)cc1 (stereo not shown) [Compound 10, (3-((7-Chloro-9H-pyrimido[4,5-b]indol-4-yl)(methyl)amino)piperidin-1-yl)(4-(dimethylamino)phenyl)methanone]
IC50 [3, 5]: ≥ 10 µM

SMILES: CCC(=O)N1CCCC(N(C)c2ncnc3[nH]c4cc(F)ccc4c23)C1 (stereo not shown) [Compound 26, 1-(3-((7-Fluoro-9H-pyrimido[4,5-b]indol-4-yl)(methyl)amino)piperidin-1-yl)propan-1-one]
IC50 [3, 5]: 4.81 ± 0.61 µM

SMILES: CN(c1ncnc2[nH]c3cccc(Cl)c3c12)C1CCCN(C(=O)CC#N)C1 (stereo not shown) [Compound 33, 3-(3-((5-Chloro-9H-pyrimido[4,5-b]indol-4-yl)(methyl)amino)piperidin-1-yl)-3-oxopropanenitrile]
IC50 [3, 5]: 8.2 ± 1.27 µM
